Values of other authors as cited in patent US12042566B2, “Formulations of homotaurines and salts thereof” (Confluence Pharmaceuticals, LLC, priority 2017, dated 2024).

Legend:
[1] = humans, reportedly
[2] = high solubility and low passive permeability

For CC(=O)NCCCS(=O)(=O)O [acamprosate, 3-(Acetylamino)propylsulfonic acid], the oral bioavailability [1] is listed as “about 11%” and the “Biopharmaceutics Classification System (BCS) class” value [2] is listed as “Class III”.
